Patent US20110086920A1, “Gamma Glutamylcysteine Treatment or Prevention of Oxidative Injury” (priority 2007, published 2011)

Experiments:
Neurons and Astrocytes = assay: Cell death after H2O2 oxidative stress in vitro (MTT, LDH, GSH assays); assay type: cell-based; details: γ-glutamylcysteine 500 μM; 10 μM H2O2
Source text: FIGS. 1A-F: Effects of γ-glutamylcysteine on Neurons and Astrocytes. Protection of cells as measured by MTT (3-(4,5-Dimethylthiazol-2-yl)-2,5-diphenyltetrazolium bromide) assay, GSH (glutathione) assay, and LDH (lactate dehydrogenase) assay.

glutathione = assay: Tissue glutathione levels after intravenous γ-glutamylcysteine supplementation in rats; assay type: in vivo; details: for Tissue Glutathione Concentration: rats 400 mg/kg IV, mean (95% CI)
Method: Ten rats were also administered 400 mg/kg of γ-glutamylcysteine intravenously. Major organ tissues were harvested from these rats at 0, 30, 60, 90, 120, and 240 minutes and assayed for glutathione concentration. […] [table]

[1] = Plasma γ-glutamylcysteine levels after intravenous administration in rats; assay type: in vivo
Method: (§1) FIG. 2: IV γ-glutamylcysteine Supplementation in Rats. Two rats were administered γ-glutamylcysteine intravenously. […] Plasma was collected at 0, 15, 30, 60, 90, and 120 minutes post-administration and assayed for γ-glutamylcysteine levels.
(§2) Two rats were administered γ-glutamylcysteine intravenously. […] Plasma was collected at 0, 15, 30, 60, 90, and 120 minutes post-administration and assayed for γ-glutamylcysteine levels.

[2] = rat, in vivo
Method: as §1, §2

neuronal cells = assay: F2-IsoPs level (oxidative stress) in neuronal cells exposed to H2O2; assay type: cell-based; details: neuronal cells pretreated with GGC 500 μM four hours prior to exposure to H2O2
Source text: To quantify the oxidative stress response, as well as modification of this response by γ-glutamylcysteine supplementation, the inventors will measure isoprostane and isofuran levels. Isoprostanes are prostaglandin like compounds that are produced without cyclooxygenase by free radical induced peroxidation of arachidonic acid. Prostaglandin F2α like compounds, termed F2-isoprostanes (F2IsoPs) have been shown both in vitro and in vivo to be an accurate measure of oxidative stress.

Compound: N[C@@H](CCC(=O)N[C@@H](CS)C(=O)O)C(=O)O [γ-glutamylcysteine]
- cell death after exposure to H2O2 (Neurons and Astrocytes): significantly reduce cell death
- Tissue Glutathione Concentration (glutathione; Brain, 0 min, n=5): 57.3 (3.3-111.3) μM
- Tissue Glutathione Concentration (glutathione; Brain, 60 min, n=4): 302.3 (190.0-414.5) μM
- Tissue Glutathione Concentration (glutathione; Brain, 90 min, n=2): 146.9 (−1200.5-1494.3) μM
- Tissue Glutathione Concentration (glutathione; Brain, 120 min, n=2): 170.7 (152.0-189.5) μM
- Tissue Glutathione Concentration (glutathione; Brain, 240 min, n=2): 110.7 (54.1-167.3) μM
- Tissue Glutathione Concentration (glutathione; GI, 0 min, n=5): 12.9 (7.2-18.5) μM
- Tissue Glutathione Concentration (glutathione; GI, 60 min, n=4): 189.8 (−5.5-385.0) μM
- Tissue Glutathione Concentration (glutathione; GI, 90 min, n=2): 166.8 (−1699.0-2032.5) μM
- Tissue Glutathione Concentration (glutathione; GI, 120 min, n=2): 14.0 (−1.6-29.6) μM
- Tissue Glutathione Concentration (glutathione; GI, 240 min, n=2): 18.5 (−100.3-137.3) μM
- Tissue Glutathione Concentration (glutathione; Heart, 0 min, n=5): 210.9 (34.4-387.4) μM
- Tissue Glutathione Concentration (glutathione; Heart, 60 min, n=4): 353.4 (220.9-486.0) μM
- Tissue Glutathione Concentration (glutathione; Heart, 90 min, n=2): 658.9 (504.5-813.2) μM
- Tissue Glutathione Concentration (glutathione; Heart, 120 min, n=2): 165.9 (149.4-182.4) μM
- Tissue Glutathione Concentration (glutathione; Heart, 240 min, n=2): 278.1 (170.7-385.4) μM
- Tissue Glutathione Concentration (glutathione; Kidney, 0 min, n=5): 14.9 (4.5-25.2) μM
- Tissue Glutathione Concentration (glutathione; Kidney, 60 min, n=4): 13.5 (−9.1-36.2) μM
- Tissue Glutathione Concentration (glutathione; Kidney, 90 min, n=2): 39.1 (−195.0-273.2) μM
- Tissue Glutathione Concentration (glutathione; Kidney, 120 min, n=2): 13.4 (−16.9-43.6) μM
- Tissue Glutathione Concentration (glutathione; Kidney, 240 min, n=2): 10.2 (−8.9-29.3) μM
- Tissue Glutathione Concentration (glutathione; Liver, 0 min, n=5): 2162.4 (1490.3-2834.5) μM
- Tissue Glutathione Concentration (glutathione; Liver, 60 min, n=4): 5066.4 (−85.9-10218.8) μM
- Tissue Glutathione Concentration (glutathione; Liver, 90 min, n=2): 10832.6 (9616.0-12049.1) μM
- Tissue Glutathione Concentration (glutathione; Liver, 120 min, n=2): 2990.0 (2239.8-3740.1) μM
- Tissue Glutathione Concentration (glutathione; Liver, 240 min, n=2): 4213.7 (−6431.5-14858.8) μM
- Tissue Glutathione Concentration (glutathione; Lung, 0 min, n=5): 142.2 (50.8-233.7) μM
- Tissue Glutathione Concentration (glutathione; Lung, 60 min, n=4): 293.5 (248.6-338.4) μM
- Tissue Glutathione Concentration (glutathione; Lung, 90 min, n=2): 412.2 (−571.1-1395.4) μM
- Tissue Glutathione Concentration (glutathione; Lung, 120 min, n=2): 166.4 (−58.3-391.0) μM
- Tissue Glutathione Concentration (glutathione; Lung, 240 min, n=2): 93.2 (−261.7-448.1) μM
- Tissue Glutathione Concentration (glutathione; Muscle, 0 min, n=5): 228.5 (125-0-331.9) μM
- Tissue Glutathione Concentration (glutathione; Muscle, 60 min, n=4): 307.6 (−1.1-616.3) μM
- Tissue Glutathione Concentration (glutathione; Muscle, 90 min, n=2): 654.5 (44.8-1264.2) μM
- Tissue Glutathione Concentration (glutathione; Muscle, 120 min, n=2): 170.5 (−137.5-478.6) μM
- Tissue Glutathione Concentration (glutathione; Muscle, 240 min, n=2): 21.9 (−16.3-60.1) μM
- mean glutathione levels in brain, heart, lung, liver, kidney, gastrointestinal and muscle tissues (glutathione; rats, 400 mg/kg intravenous): increased
- tissue glutathione levels (glutathione; rats, intravenous): significant elevation
- plasma γ-glutamylcysteine levels ([1]; rats): significant elevation
- time of peak plasma γ-glutamylcysteine concentration post-injection ([1]; two rats, plasma at 0-120 min): 30 min
- tolerability of intravenous supplementation [2]: well-tolerated
- clinically visible signs of toxicity ([2]; iv): no clinically visible signs of toxicity
- level of F2-IsoPs (oxidative stress) (neuronal cells): reduced
